This is an account of results in US6319955A, “Use of MEK1 inhibitors as protective agents against damage due to ischemia” (priority 2000, dated 2001).

Data set [1] in a line: mean arterial blood pressure, PD98059. The format is in vivo, mouse. The procedure: Mean arterial blood pressure (MABP) was determined in the presence or absence of 200 μM PD98059 10 minutes before and 1 hour after induction of ischemia, and 30 minutes after reperfusion under 1% halothane anesthesia (Table 2). Data are presented as means±SD. MABP was determined to be unaltered.

Data set [2] is described as follows: regional cerebral blood flow by Laser-Doppler flowmetry, PD98059. The format is in vivo, mouse. Conditions: 200 μM PD98059, n = 5, % of baseline, means ±SD. The source says: Data are presented as means ±SD. Therefore, the decrease in ERK1/2 phosphorylation seen with PD98059 was not due to higher blood flow.
The subject of data set [3] is MEK1. Conditions: Favata et al., 1998, DeSilva et al.; cited from earlier work.
For data set [4], the system named is neurological deficits caused by ischemia. The experiment in a line: neurological grading after 2 hours of MCA occlusion and reperfusion. The format is in vivo, mouse (SV-129). The note with it: three days after 2 hours MCA occlusion and reperfusion; mean±SEM; vehicle 2.2±0.3; P<0.05.
Procedure: Data are presented as mean ±SEM Data were analyzed by Student-t test or one-way ANOVA followed by Bonferroni's post hoc test.
For data set [5], the system named is HT22 cells.
For data set [6], the system named is ERK1/2. The experiment in a line: immunohistochemistry of phosphorylated ERK1/2 in brain slices after ischemia and reperfusion (PD98059 i.c.v.). The format is in vivo, mouse (SV-129). Conditions: 2 μl of 200 μM i.c.v. 30 min before ischemia; 120 min ischemia, 3 min reperfusion.
Data set [7] can be described thus: arterial blood pH, pCO2 and pO2, PD98059. The format is in vivo, mouse. The procedure:
Partial oxygen tension (pO2), partial carbon dioxide tension (pCO2), and blood pH were determined in the presence or absence of 200 μM PD98059, 1 hour after the induction of ischemia under 1% halothane anesthesia (Table 3).

For data set [8] the following is noted: mouse, in vivo.
Data set [9] concerns p38 MAP kinase. The note with it: Cohen, Trends Cell Biol. 7:353, 1997; cited from earlier work.
For data set [10], the system named is SAPKs/JNKs. Conditions: Cohen, Trends Cell Biol. 7:353, 1997; cited from earlier work.
Data set [11] deals with ERK1/2. The note with it: 5 mM glutamate.
The conditions of data set [12]: compared with native tPA; cited from earlier work.

A value given as a limit tells only on which side of the number the result lay.

For `COc1cccc(-c2cc(=O)c3ccccc3o2)c1N` [PD98059, 2-(2-amino-3-methoxyphenyl)-4-oxo-4H-[1]benzopyran], the “MABP (before)” value in data set [1] (200 μM PD98059, n = 5, 10 minutes before ischemia, means±SD, DMSO 80.7 ± 7.5, in mmHg (unit assumed)) is reported as 86.4 ± 10.9. Moreover, the “MABP (after)” value in data set [1] (200 μM PD98059, n = 5, 30 minutes after reperfusion, means±SD, DMSO 82.8 ± 13.5) is reported as 86.0 ± 12.3. Besides, the “MABP (during)” value in [1] (200 μM PD98059, n = 5, 1 hour after induction of ischemia, means±SD, DMSO 82.3 ± 2.1, in mmHg (unit assumed)) came out at 81.8 ± 4.1. In data set [1] (200 μM PD98059 vs DMSO), the “MABP, in words” value was “unaltered”. The “RCBF (after MCA)” value in data set [2] (30 min reperfusion, DMSO 102.5% ± 6.8) was 94.9% ± 8.9. For the same compound, the “RCBF (during MCA)” value in data set [2] (DMSO 25.2% ± 5.7) is listed as 15.9% ± 1.7. Besides, in data set [3], the “inhibition of active / inactive MEK1, in words” value was “cannot efficiently inhibit MEK1 once it is activated”. In data set [4], this compound showed a neurological grading of 0.71±0.29. For the same compound, the cell injury entry in data set [5] (PD98059 50 μM, 9 hours after 5 mM glutamate) is given as “partially attenuated cell injury”. In addition, the protective effects result in data set [5] (PD98059 50 μM, 24 hours after 5 mM glutamate) is recorded as “did not sustain for 24 hours”. The “phosphorylation of ERK1/2 in the middle cerebral artery territory” value in data set [6] is “reduced”. Besides, the “blood pH” value in data set [7] (200 μM PD98059, n = 5, 1 hour after induction of ischemia, means ±SD, DMSO 7.32 ± 0.06) is 7.32 ± 0.07. The same compound gave a PCO2 in data set [7] (200 μM PD98059, n = 5, 1 hour after induction of ischemia, means ±SD, DMSO 48.8 ± 5.1, in mmHg (unit assumed)) of 49.9 ± 3.5. Moreover, in data set [7] (200 μM PD98059, n = 5, 1 hour after induction of ischemia, means ±SD, DMSO 155.3 ± 13.8, in mmHg (unit assumed)), the PO2 is listed as 139.1 ± 21.6. Further, in data set [7] (200 μM PD98059 vs DMSO), the “pO2, pCO2, and blood pH, in words” value was “did not differ between the two groups”. For the same compound, in data set [8], the body temperature turned out to be 34.6±0.8 °C and the temporal muscle temperature was 35.5±0.1 °C.
As for `C[S+]([O-])c1ccc(-c2nc(-c3ccncc3)c(-c3ccc(F)cc3)[nH]2)cc1` (centres unmarked) [SB203580], the “inhibitor of p38 MAP kinase (concentration)” value in data set [9] is 1 to 2 µM. Further, the “inhibitor of SAPKs/JNKs (concentration)” value in data set [10] is above 10 µM.
Turning to `N[C@@H](CCC(=O)O)C(=O)O` [glutamate], in [5] (5 mM glutamate (FIG. 5A)), the “completion of cell injury after addition of glutamate” value is listed as “up to 10 hours” and the “onset of cell injury after addition of glutamate” value is 8 h. Also, in data set [11], the “time of further increase of ERK1/2 phosphorylation after glutamate addition” value is 7 to 8 h.
For “conjugation of tPA to polyethylene glycol: conjugation of tPA to polyethylene glycol”, in data set [12], the “clearance rate, in words” value is “reduce the clearance rate of tPA”.
